Source: patent US20060172996A1, “Method of preventing relapse in the abstinent substance dependent individual” (priority 2005, published 2006)

Tested on: otherwise abstinent person
Test: Human use of Flumazenil during a period of urges for a substance of abuse
Format: in vivo
Conditions: placed into the blood stream as quickly as possible during a period of urges
Source text: While an IV might accomplish the above noted task, it is not realistic for a person, after having undergone detoxification, to have repeated IV therapies daily, to prevent a relapse so as not become substance abuse dependent again. Such a person would have to go to a treatment location where an IV can be administered.

## CCOC(=O)c1ncn2c1CN(C)C(=O)c1cc(F)ccc1-2 [Flumazenil]
  Urge for a substance of abuse such as alcohol: the urge will disappear
